Assay results reported in paper PMC3913857, “Regorafenib in Japanese patients with solid tumors: phase I study of safety, efficacy, and pharmacokinetics” (Investigational New Drugs, 2013).
Where two headings read alike, the source gives them in different places. Marks after values point to notes of the source that are not given here.

Legend:
clinical = test: clinical; design: species or system Japanese patients; conditions: in vivo; for AUC from 0 to 24 h of metabolite as share of regorafenib / t 1/2 (terminal half life) / t max / AUC / AUC0–24 / C max / AUC(0-t) / Cmax / half-life: human
Protocol: Patients who provided at least one evaluable pharmacokinetic sample were eligible for pharmacokinetic analyses.
Plasma concentrations of regorafenib and its metabolites were determined by fully validated liquid chromatography–tandem mass spectrometry after protein precipitation with acetonitrile/ammonium acetate buffer containing the internal standards [^2H3 ^15N] BAY 73-4506 (for regorafenib), [^2H3 ^15N] […] BAY 81-8752 (for the M5 metabolite).

[1] = design: method as in PMID 22421192, PMID 22568966; conditions: European phase I and II studies; cited from earlier work
[2] = tested on: treatment-refractory advanced solid tumors; test: Tumor response (RECIST version 1.0), Japan phase I study; assay type: in vivo, Japanese patients
Protocol: (§1) All patients who received at least one dose of regorafenib were eligible for safety analyses and were included in the efficacy analyses if they also had post-baseline efficacy data. For the safety analysis, physical examination, vital signs, use of concomitant medications, and laboratory test data were reported, and patients were routinely monitored for adverse events, which were recorded with severity and relationship to study medication according to the National Cancer Institute Common Terminology Criteria for Adverse Events version 3.0. Tumor response was assessed every 8 weeks for the first 6 cycles and every 12 weeks after Cycle 6 by Response Evaluation Criteria in Solid Tumors version 1.0, using the same imaging techniques and methods as at baseline. The response rate was defined as the proportion of patients whose best response was a confirmed partial or complete response.

cytochrome p450 3A4 = tested on: cytochrome p450 3A4; design: method as in ref 11 = [11]; 11. Bayer HealthCare AG, data on file; conditions: in vitro; cited from earlier work
[3] = tested on: UDP-glucuronosyltransferase 1A9; design: method as in ref 11 = [11]; 11. Bayer HealthCare AG, data on file; conditions: in vitro, glucuronidation; cited from earlier work
[4] = design: method as in ref 7 = [7]; 7. Eisen T, Joenssu H, Nathan P Harper P, Wojtukiewicz M, Nicholson S, Bahl A, Tomczak P, Wagner A, Quinn D (2011) Phase II trial of the oral multi kinase inhibitor regorafenib (BAY 73-4506) as first-; conditions: European phase II study, advanced renal cell carcinoma, n = 49, cited from earlier work
[5] = design: method as in PMID 22421192; conditions: European phase I study, 160 mg cohort only, n = 12, cited from earlier work
[6] = Safety: adverse events (NCI CTCAE v3.0) and laboratory toxicities, Japan phase I study; design: species or system Japanese patients; conditions: in vivo
Protocol: as §1
Unacceptable toxicity was defined as any of the following events occurring during Cycle 1 and considered to be related to study drug: grade 4 neutropenia (for ≥7 days); febrile neutropenia with grade 4 neutropenia and fever; grade 4 thrombocytopenia; grade 3 or 4 nonhematologic toxicities (excluding events considered to be tolerable by the investigator). If two of the first three or three of the first six patients treated with regorafenib experienced unacceptable toxicities during Cycle 1, the safety data were reviewed by the Data Monitoring Committee, which considered whether protocol amendments were needed to address any safety concerns before subsequent patients were treated.

[7] = any time after start of study treatment

Compound: CNC(=O)c1cc(Oc2ccc(NC(=O)Nc3ccc(Cl)c(C(F)(F)F)c3)c(F)c2)cc[n+]1[O-] [M2]
- AUC from 0 to 24 h of metabolite as share of regorafenib (clinical): 47.3%
- t 1/2 (terminal half life) (clinical): 29.5 (24.1) h
- t max (clinical): 4.3 (0.6–47.9) h
- AUC (clinical; po, 160 mg): 7,820.6 (301.2) μg.h/L
- AUC0–24 (clinical; po, 160 mg): 3,697.2 (340.5) μg.h/L
- C max (clinical; po, 160 mg): 273.3 (388.9) μg/L
- t 1/2 (terminal half life) (clinical; po, 160 mg): 24.8 (27.7) h
- Change in t max and t 1/2 between single dosing and 21-day multiple dosing (clinical): no significant change

Compound: NC(=O)c1cc(Oc2ccc(NC(=O)Nc3ccc(Cl)c(C(F)(F)F)c3)c(F)c2)cc[n+]1[O-] [M5]
- AUC from 0 to 24 h of metabolite as share of regorafenib (clinical): 21.5%
- t 1/2 (terminal half life) (clinical): 57.5 (33.7) h
- t max (clinical): 35.6 (0.6–73.2) h
- AUC (clinical; po, 160 mg): 3,441.8 (112.0)^a μg.h/L
- AUC0–24 (clinical; po, 160 mg): 380.5/164.2 (112.0)^a μg.h/L
- C max (clinical; po, 160 mg): 31.1 (167.3)^a μg/L
- t max (clinical; po, 160 mg): 24.0 (2.8–71.3)^a h
- Change in t max and t 1/2 between single dosing and 21-day multiple dosing (clinical): no significant change

Compound: CNC(=O)c1cc(Oc2ccc(NC(=O)Nc3ccc(Cl)c(C(F)(F)F)c3)c(F)c2)ccn1 [Regorafenib]
- Frequency of hand–foot skin reaction [1]: 67–71%
- Complete response ([2]; 15 patients): no patient
- Overall response rate ([2]; 15 patients, 95 % confidence interval 0.2–31.9 %): 7%
- Median time to progression ([2]; 95 % confidence interval 1.9–12.4 months): 3.7 months
- Duration of response (partial response) ([2]; one patient, pancreatic neuroendocrine tumor): 10.5 months
- Metabolizing enzyme (cytochrome p450 3A4): metabolized by cytochrome p450 3A4
- AUC (clinical; po, 160 mg): 34600 ng·h/mL
- AUC(0-t) (clinical; po, 160 mg): 16400 ng·h/mL
- Cmax (clinical; po, 160 mg): 1370 ng/mL
- t 1/2 (terminal half life) (clinical; po, 160 mg): 27.4 (29.9) h
- t max (clinical; po, 160 mg): 4 h
- half-life (clinical; po, 160 mg, t 1/2 (terminal half life)): ~1620 min
- AUC(0-t) (clinical; Cycle 1 day 21, regorafenib 160 mg once daily for 21 days, N = 12, geometric mean (% coefficient of variance), read-out: AUC0–24): 33000 ng·h/mL
- Cmax (clinical; Cycle 1 day 21, regorafenib 160 mg once daily for 21 days, N = 12, geometric mean (% coefficient of variance), read-out: C max): 2520 ng/mL
- half-life (clinical; Cycle 1 day 21, regorafenib 160 mg once daily for 21 days, N = 12, geometric mean (% coefficient of variance), read-out: t 1/2 (terminal half life) (converted)): 1820 min
- t max (clinical; Cycle 1 day 21, regorafenib 160 mg once daily for 21 days, N = 12, median (range), read-out: t max): 3.6 h
- Change in t max and t 1/2 between single dosing and 21-day multiple dosing (clinical): no significant change
- Metabolizing enzyme [3]: UDP-glucuronosyltransferase 1A9 glucuronidation
- Incidence of biochemical toxicities: ALT, all grades [4, 7]: 39%
- Incidence of biochemical toxicities: ALT, grade 3/4 [4, 7]: 2%
- Incidence of biochemical toxicities: AST, all grades [4, 7]: 41%
- Incidence of biochemical toxicities: AST, grade 3/4 [4, 7]: 2%
- Adverse events: Alopecia, all grades ([4]; untreated): 45%
- Adverse events: Alopecia, grade 3/4 ([4]; untreated): 0%
- Adverse events: Anorexia, all grades ([4]; untreated): 29%
- Adverse events: Anorexia, grade 3/4 ([4]; untreated): 6%
- Adverse events: Diarrhea, all grades ([4]; untreated): 45%
- Adverse events: Diarrhea, grade 3/4 ([4]; untreated): 10%
- Adverse events: Fatigue, all grades ([4]; untreated): 53%
- Adverse events: Fatigue, grade 3/4 ([4]; untreated): 8%
- Adverse events: Hand–foot skin reaction, all grades ([4]; untreated): 71%
- Adverse events: Hand–foot skin reaction, grade 3/4 ([4]; untreated): 33%
- Adverse events: Hypertension, all grades ([4]; untreated): 49%
- Adverse events: Hypertension, grade 3/4 ([4]; untreated): 6%
- Adverse events: Rash, all grades ([4]; untreated): 39%
- Adverse events: Rash, grade 3/4 ([4]; untreated): 6%
- Adverse events: Voice changes/hoarseness, all grades ([4]; untreated): 35%
- Adverse events: Voice changes/hoarseness, grade 3/4 ([4]; untreated): 0%
- Incidence of biochemical toxicities: ALT, all grades [5, 7]: 75%
- Incidence of biochemical toxicities: ALT, grade 3/4 [5, 7]: 25%
- Incidence of biochemical toxicities: AST, all grades [5, 7]: 75%
- Incidence of biochemical toxicities: AST, grade 3/4 [5, 7]: 25%
- Adverse events: Alopecia, all grades [5]: 33%
- Adverse events: Alopecia, grade 3/4 [5]: 0%
- Adverse events: Anorexia, all grades [5]: 50%
- Adverse events: Anorexia, grade 3/4 [5]: 8%
- Adverse events: Diarrhea, all grades [5]: 50%
- Adverse events: Diarrhea, grade 3/4 [5]: 17%
- Adverse events: Fatigue, all grades [5]: 17%
- Adverse events: Fatigue, grade 3/4 [5]: 0%
- Adverse events: Hand–foot skin reaction, all grades [5]: 67%
- Adverse events: Hand–foot skin reaction, grade 3/4 [5]: 25%
- Adverse events: Hypertension, all grades [5]: 50%
- Adverse events: Hypertension, grade 3/4 [5]: 17%
- Adverse events: Rash, all grades [5]: 50%
- Adverse events: Rash, grade 3/4 [5]: 8%
- Adverse events: Voice changes/hoarseness, all grades [5]: 42%
- Adverse events: Voice changes/hoarseness, grade 3/4 [5]: 0%
- Biochemical abnormality: alkaline phosphatase (ALP) elevation ([6]; human): 93%
- Biochemical abnormality: hypoalbuminemia ([6]; human): 93%
- Biochemical abnormality: hypophosphatemia ([6]; human): 80%
- Biochemical abnormality: proteinuria ([6]; human): 80%
- Biochemical toxicity: ALP elevation, any grade ([6]; human): 14 (93) n (%)
- Biochemical toxicity: ALP elevation, grade 3 or 4 ([6]; human): 2 (13) n (%)
- Biochemical toxicity: ALT elevation, any grade ([6]; human): 12 (80) n (%)
- Biochemical toxicity: ALT elevation, grade 3 or 4 ([6]; human): 3 (20) n (%)
- Biochemical toxicity: AST elevation, any grade ([6]; human): 13 (87) n (%)
- Biochemical toxicity: AST elevation, grade 3 or 4 ([6]; human): 3 (20) n (%)
- Biochemical toxicity: Hypoalbuminemia, any grade ([6]; human): 14 (93) n (%)
- Biochemical toxicity: Hypoalbuminemia, grade 3 or 4 ([6]; human): 0 n (%)
- Biochemical toxicity: Hypocalcemia, any grade ([6]; human): 9 (60) n (%)
- Biochemical toxicity: Hypocalcemia, grade 3 or 4 ([6]; human): 0 n (%)
- Biochemical toxicity: Hypophosphatemia, any grade ([6]; human): 12 (80) n (%)
- Biochemical toxicity: Hypophosphatemia, grade 3 or 4 ([6]; human): 4 (27) n (%)
- Biochemical toxicity: Proteinuria, grade 3 or 4 ([6]; human): 1 (7) n (%)
- Incidence of biochemical toxicities: ALT, grade 3/4 ([6]; human): 20%
- Incidence of biochemical toxicities: AST, all grades ([6]; human): 87%
- Incidence of biochemical toxicities: AST, grade 3/4 ([6]; human): 20%
- Patients with at least one drug-related treatment-emergent adverse event of any grade ([6]; human): 15 patients
- Treatment discontinuation for adverse event: anemia ([6]; human): 1 n
- Treatment discontinuation for adverse event: liver enzyme elevation ([6]; human): 1 n
- Grade of drug-related adverse event resulting in treatment reduction or interruption: ALT elevation ([6]; human, 1 cycle): 3
- Grade of drug-related adverse event resulting in treatment reduction or interruption: AST elevation ([6]; human, 1 cycle): 3
- Grade of drug-related adverse event resulting in treatment reduction or interruption: Hypertension ([6]; human, 1 cycle): 2
- Grade of drug-related adverse event resulting in treatment reduction or interruption: Leukopenia ([6]; human, 1 cycle): 2
- Grade of drug-related adverse event resulting in treatment reduction or interruption: Neutropenia ([6]; human, 1 cycle): 3
- Grade of drug-related adverse event resulting in treatment reduction or interruption: Thrombocytopenia ([6]; human, 1 cycle): 2
- Grade of drug-related adverse event resulting in treatment reduction or interruption: ALT elevation ([6]; human, 2 cycle): 4
- Grade of drug-related adverse event resulting in treatment reduction or interruption: Hand–foot skin reaction ([6]; human, 2 cycle): 3
- Grade of drug-related adverse event resulting in treatment reduction or interruption: Dental pulpitis ([6]; human, 3 cycle): 2
- Grade of drug-related adverse event resulting in treatment reduction or interruption: Diarrhea ([6]; human, 3 cycle): 3
- Grade of drug-related adverse event resulting in treatment reduction or interruption: Hand–foot skin reaction ([6]; human, 3 cycle): 1
- Grade of drug-related adverse event resulting in treatment reduction or interruption: Hand–foot skin reaction (event cell empty, from line above) ([6]; human, 3 cycle): 1
- Grade of drug-related adverse event resulting in treatment reduction or interruption: Hand–foot skin reaction ([6]; human, 7 cycle): 3
- Grade of drug-related adverse event resulting in treatment reduction or interruption: Hand–foot skin reaction (event cell empty, from line above) ([6]; human, 9 cycle): 1
- Grade of drug-related adverse event resulting in treatment reduction or interruption: Proteinuria ([6]; human, 9 cycle): 3
- Grade of drug-related adverse event resulting in treatment reduction or interruption: Proteinuria ([6]; human, 10 cycle): 2
- Grade of drug-related adverse event resulting in treatment reduction or interruption: Back pain ([6]; human, 11 cycle): 3
- Grade of drug-related adverse event resulting in treatment reduction or interruption: Gingivitis ([6]; human, 18 cycle): 2
- Changes in vital signs or electrocardiogram findings [6]: No clear changes
- Cycle delay (start of next cycle delayed longer than 7 days) because of adverse events [6]: four
- Dose reduction because of adverse events [6]: six
- Drug-related adverse events leading to dose interruption or dose reduction [6]: eight
- Interruption of regorafenib during daily treatment because of adverse events [6]: seven
- Serious adverse events [6]: six
- Serious adverse events deemed treatment-related [6]: three
- Treatment-related deaths [6]: No treatment-related deaths
